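Method: 48-hour compound exposure of cells in 96-well plates, five concentrations, linear interpolation of endpoints. GI50: concentration for 50% inhibition of growth.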 The source made the active and inactive calls. No stated cut-off is given here; in the data, active = GI50 up to about 1.1 µM and inactive = higher.
Columns and labels:
Assay in all cases: NCI tumour cell line growth inhibition, 48 h
[1] = system: A549
[2] = system: BT-549
[3] = system: HCT-15
[4] = system: HOP-62
[5] = system: MCF7
[6] = system: MDA-MB-231
[7] = system: MDA-MB-435
[8] = system: MDA-N
[9] = system: NCI-H226
[10] = system: NCI-H23
[11] = system: OVCAR-4
[12] = system: OVCAR-8
[13] = system: PC-3
[14] = system: SK-MEL-2
[15] = system: SN12C
[16] = system: UACC-62
[17] = system: HOP-92
[18] = system: KM12
[19] = system: SF-295
[20] = system: SK-OV-3

Compound | GI50 [1] | GI50 [2] | GI50 [3] [µM] | GI50 [4] | GI50 [5] | GI50 [6] | GI50 [7] | GI50 [8] | GI50 [9] | GI50 [10] | GI50 [11] | GI50 [12] | GI50 [13] | GI50 [14] | GI50 [15] | GI50 [16] | GI50 [17] | GI50 [18] | GI50 [19] | GI50 [20]
Cc1ccc(/N=N/C(=O)NNc2ccc(C)cc2Br)c(Br)c1 | 24.4 µM (inactive) | 27.2 µM (inactive) | 20 | 19.6 µM (inactive) | 21.8 µM (inactive) | 26.3 µM (inactive) | 30.5 µM (inactive) | 19.3 µM (inactive) | 21.3 µM (inactive) | 24.5 µM (inactive) | 37.5 µM (inactive) | 20.5 µM (inactive) | 11.9 µM (inactive) | 16.1 µM (inactive) | 21.4 µM (inactive) | 10.9 µM (inactive) |  |  |  | 
c1ccc(C2=Nc3nc4ccccc4n3C(c3ccccc3)C2)cc1 (centres undefined) | > 100 µM (inactive) | > 100 µM (inactive) | > 100 | 36 µM (inactive) | > 100 µM (inactive) | 70.6 µM (inactive) | 36 µM (inactive) | > 100 µM (inactive) | > 100 µM (inactive) | > 100 µM (inactive) | > 100 µM (inactive) | > 100 µM (inactive) | > 100 µM (inactive) | > 100 µM (inactive) |  | > 100 µM (inactive) | 24.6 µM (inactive) | > 100 µM (inactive) | 79.8 µM (inactive) | > 100 µM (inactive)
O=C1CCc2cc([N+](=O)[O-])ccc2O1 | > 100 µM (inactive) | > 100 µM (inactive) | > 100 | > 100 µM (inactive) | > 100 µM (inactive) | > 100 µM (inactive) | > 100 µM (inactive) | > 100 µM (inactive) | > 100 µM (inactive) | > 100 µM (inactive) | > 100 µM (inactive) | > 100 µM (inactive) | > 100 µM (inactive) | > 100 µM (inactive) | > 100 µM (inactive) | > 100 µM (inactive) | > 100 µM (inactive) |  | > 100 µM (inactive) | 
Cc1ccc2cc3c(ccc4ccccc43)c3c2c1CC3 [3-METHYLCHOLANTHRENE] | > 100 µM (inactive) | > 100 µM (inactive) | 9.82 | > 100 µM (inactive) | 0.159 µM (active) | > 100 µM (inactive) | > 100 µM (inactive) | > 100 µM (inactive) | > 100 µM (inactive) | > 100 µM (inactive) |  | > 100 µM (inactive) | > 100 µM (inactive) | > 100 µM (inactive) | > 100 µM (inactive) | > 100 µM (inactive) | > 100 µM (inactive) | > 100 µM (inactive) | > 100 µM (inactive) | > 100 µM (inactive)
Nc1ccc(-c2nc3ccc(F)cc3s2)cc1 | 28.1 µM (inactive) | 39.4 µM (inactive) | 35.8 | 29.5 µM (inactive) |  | 25.3 µM (inactive) | 25.9 µM (inactive) | 39.4 µM (inactive) |  | 31.3 µM (inactive) |  | 48.3 µM (inactive) | 17.2 µM (inactive) | 19.8 µM (inactive) | 33 µM (inactive) | 16.6 µM (inactive) | 29.4 µM (inactive) | 25.2 µM (inactive) | 25.5 µM (inactive) | 
COc1cc(/C=C/C(=O)CC(=O)/C=C/c2ccc(OC(=O)CCCCC3CCSS3)c(OC)c2)ccc1OC(=O)CCCCC1CCSS1 (centres undefined) | > 100 µM (inactive) | > 100 µM (inactive) | > 100 | > 100 µM (inactive) | > 100 µM (inactive) | > 100 µM (inactive) | > 100 µM (inactive) | > 100 µM (inactive) | > 100 µM (inactive) | > 100 µM (inactive) | > 100 µM (inactive) | > 100 µM (inactive) | > 100 µM (inactive) | > 100 µM (inactive) | > 100 µM (inactive) | > 100 µM (inactive) |  | > 100 µM (inactive) | > 100 µM (inactive) | > 100 µM (inactive)
Cc1nc2n(c1/C=C1/C(=O)Nc3ccccc31)CCS2 | 51.9 µM (inactive) | 41.3 µM (inactive) | 34.2 | > 100 µM (inactive) | 24.3 µM (inactive) | 32.7 µM (inactive) | 14.8 µM (inactive) | 17.6 µM (inactive) |  | 47 µM (inactive) | 52.5 µM (inactive) | 79.6 µM (inactive) | 26.5 µM (inactive) | 5.74 µM (inactive) | 56.1 µM (inactive) | 24.2 µM (inactive) | > 100 µM (inactive) | 31.1 µM (inactive) | 39.6 µM (inactive) | 68.2 µM (inactive)
O=C(O)/C(=C\c1ccc(O)cc1)c1cccc2ccccc12 | > 100 µM (inactive) | > 100 µM (inactive) | > 100 | 35 µM (inactive) |  | > 100 µM (inactive) | > 100 µM (inactive) | > 100 µM (inactive) | > 100 µM (inactive) | > 100 µM (inactive) | > 100 µM (inactive) | > 100 µM (inactive) | > 100 µM (inactive) | > 100 µM (inactive) | > 100 µM (inactive) | > 100 µM (inactive) | > 100 µM (inactive) | > 100 µM (inactive) | > 100 µM (inactive) | 
CSCCC(NC(=O)C(Cc1c[nH]c2ccccc12)NC(=O)CCNC(=O)OC(C)(C)C)C(=O)NC(CC(=O)O)C(=O)NC(Cc1ccccc1)C(N)=O (centres undefined) | > 50 µM (inactive) | > 50 µM (inactive) |  | > 50 µM (inactive) | > 50 µM (inactive) | > 50 µM (inactive) | > 50 µM (inactive) | > 50 µM (inactive) | > 50 µM (inactive) |  |  |  | > 50 µM (inactive) | > 50 µM (inactive) | > 50 µM (inactive) | > 50 µM (inactive) | > 50 µM (inactive) | > 50 µM (inactive) | > 50 µM (inactive) | > 50 µM (inactive)
O=C(O)c1nc2ccc(C(F)(F)F)cc2nc1Nc1ccc(F)cc1 |  | 12.5 µM (inactive) | 20.7 | 17.1 µM (inactive) | 23 µM (inactive) | 25.1 µM (inactive) | 17.6 µM (inactive) | 27.5 µM (inactive) | 18.1 µM (inactive) | 15.2 µM (inactive) | 22.6 µM (inactive) | 17.2 µM (inactive) | 15 µM (inactive) | 15.3 µM (inactive) | 26.8 µM (inactive) | 11.7 µM (inactive) |  | 18.6 µM (inactive) | 11.5 µM (inactive) | 
Cc1sc2nc3n(c(=O)c2c1C)N=C(c1ccccc1)CS3 | > 100 µM (inactive) | > 100 µM (inactive) | > 100 | 48.3 µM (inactive) | > 100 µM (inactive) | > 100 µM (inactive) | > 100 µM (inactive) | > 100 µM (inactive) | > 100 µM (inactive) | > 100 µM (inactive) | > 100 µM (inactive) | > 100 µM (inactive) | > 100 µM (inactive) |  | > 100 µM (inactive) | > 100 µM (inactive) | > 100 µM (inactive) | > 100 µM (inactive) | 45.4 µM (inactive) | > 100 µM (inactive)
O=C(Cc1nc2ncccc2[nH]c1=O)c1c[nH]c2ccccc12 | 20 µM (inactive) | 29.4 µM (inactive) | 31.6 | 18.7 µM (inactive) | 16.9 µM (inactive) | 16.7 µM (inactive) | 15.9 µM (inactive) | 19.7 µM (inactive) |  | 21.6 µM (inactive) |  | 23.4 µM (inactive) | 16 µM (inactive) | 14.9 µM (inactive) | 18.2 µM (inactive) | 16.8 µM (inactive) | 17.7 µM (inactive) | 17.5 µM (inactive) | 16.5 µM (inactive) | 16.3 µM (inactive)
Cc1cc(Cc2cc(C)c(N)cc2N)c(N)cc1N | > 100 µM (inactive) | > 100 µM (inactive) | > 100 | 93.5 µM (inactive) | > 100 µM (inactive) | > 100 µM (inactive) | 99.3 µM (inactive) | > 100 µM (inactive) | > 100 µM (inactive) | 28.2 µM (inactive) | > 100 µM (inactive) | 94.4 µM (inactive) | > 100 µM (inactive) | > 100 µM (inactive) | > 100 µM (inactive) | > 100 µM (inactive) |  | 85.5 µM (inactive) | > 100 µM (inactive) | > 100 µM (inactive)
CCCc1cc(=O)oc2c(C=O)c(O)cc(O)c12 | 31.7 µM (inactive) | 25.1 µM (inactive) | 26.4 | 22.3 µM (inactive) | 27 µM (inactive) | 17.5 µM (inactive) | 21.8 µM (inactive) | 22.3 µM (inactive) |  | 20.3 µM (inactive) | 25.8 µM (inactive) | 22 µM (inactive) | 25.1 µM (inactive) | 18.2 µM (inactive) | 24.9 µM (inactive) | 19.8 µM (inactive) | 18.7 µM (inactive) | 22.7 µM (inactive) | 29.9 µM (inactive) | 27.8 µM (inactive)
O=C1c2ccccc2C(=O)N1C1(C(=O)NC2(C(=O)O)CCCC2)CCCC1 | > 100 µM (inactive) | > 100 µM (inactive) | > 100 | > 100 µM (inactive) | > 100 µM (inactive) | > 100 µM (inactive) | > 100 µM (inactive) | > 100 µM (inactive) | > 100 µM (inactive) | > 100 µM (inactive) | > 100 µM (inactive) | > 100 µM (inactive) | > 100 µM (inactive) | > 100 µM (inactive) | > 100 µM (inactive) | > 100 µM (inactive) |  | > 100 µM (inactive) | > 100 µM (inactive) | > 100 µM (inactive)
CC(C)c1cccc(C(=O)NCCN(C)C)c1[N+](=O)[O-] | 80.2 µM (inactive) | 19.5 µM (inactive) | > 100 | > 100 µM (inactive) | > 100 µM (inactive) | > 100 µM (inactive) | > 100 µM (inactive) | > 100 µM (inactive) | > 100 µM (inactive) | > 100 µM (inactive) |  | > 100 µM (inactive) | > 100 µM (inactive) | > 100 µM (inactive) | > 100 µM (inactive) | > 100 µM (inactive) |  | > 100 µM (inactive) | > 100 µM (inactive) | > 100 µM (inactive)
